Test results as given in publication PMC11574108, “4-Furanylvinylquinoline derivative as a new scaffold for the design of oxidative stress initiator and glucose transporter inhibitor drugs” (Scientific Reports, 2024).
Several values for one entry are separate records, joined by “and”; a condition that tells them apart may be missing. Equal values may be shown once.

Legend:
[1] = test system: HCT 116 p53-/-; test: Monolayer antiproliferative MTS assay; assay type: cell-based, human; conditions: 2D monolayer; for IC50: MTS, 72-h incubation; for SI (selectivity index) HCT 116 p53-/-: relative to NHDF
Source text: (§1) The human colon carcinoma cell line HCT 116 with wild-type p53 (p53^+/+) and the human glioblastoma cell line U-251 were obtained from ATCC, while the HCT 116 with a p53 deletion (p53^−/−) was kindly provided by Prof. M. Rusin from the Maria Sklodowska-Curie Memorial Cancer Center and Institute of Oncology in Gliwice, Poland. The human chronic myelogenous leukaemia cell line K562 and the normal human cell dermal fibroblast cell line NHDF were purchased from Sigma-Aldrich and PromoCell, respectively. Both the HCT 116 and U-251 cell lines were cultured in Dulbecco’s modified Eagle’s medium (DMEM) supplemented with 10% inactivated foetal bovine serum (FBS). The DMEM for the NHDF contained 15% non-inactivated FBS. K562 cells were cultured in RPMI medium completed by 10% inactivated FBS. Additionally, the media were supplemented with antibiotics (streptomycin and penicillin – 1% v/v; Sigma-Aldrich). The cell culture was conducted in 75 cm^2 flasks (Nunc) under standard conditions (37 °C, 5% CO2 humidified atmosphere). Furthermore, the cell lines were frequently tested for mycoplasma using the qRT-PCR technique with specific Mycoplasma primers to confirm the lack of contamination.
(§2) The cells were seeded in 96-well plates (Nunc) with 5,000 or 4,000 cells per well for the cancer cells and NHDF, respectively, and incubated under standard conditions at 37 °C overnight. The culture media were then changed for freshly prepared solutions of the tested compounds in various concentrations. After 72-h incubation the antiproliferative assay was carried out as follows: the solutions of the compounds were changed in each well to 100 µL DMEM without phenol red and 20 µL of CellTiter 96 AQueous One Solution-MTS (Promega). The plates were incubated for 1 h at 37 °C, and the absorbance was then measured at 490 nm using a multi-plate reader (Synergy 4, BioTek). The experiment for each sample was repeated at least three times.
(§3) Additionally, the compounds were also tested for their cytotoxicity against normal cells – human dermal fibroblasts (NHDF).

[2] = test system: HCT 116 p53+/+; test: Monolayer antiproliferative MTS assay; assay type: cell-based, human; conditions: 2D monolayer; for IC50: MTS, 72-h incubation; for SI (selectivity index) HCT 116 p53+/+: relative to NHDF
Source text: as §1, §2, §3

[3] = test system: NHDF; test: Monolayer MTS cytotoxicity against normal cells; assay type: cell-based; conditions: normal human dermal fibroblasts, 72-h incubation
Source text: as §1, §2, §3

[4] = test system: GLUT-1; test: Western blot, GLUT-1 protein level; assay type: cell-based, human; conditions: HCT 116 p53+/+, DOX 5 µM, both time points (24 and 48 h)
Experimental: The cells (500,000) were seeded in 35 mm Petri dishes (Nunc) and incubated in a solution of the tested compound (0.5 µM and 1 µM) for 24 h and 48 h. The cells were then dissociated using trypsin, collected in Eppendorf tubes, and centrifuged at 2,000 rpm. Next, cell pellets were resuspended in complete RIPA buffer containing a Halt Protease Inhibitor Cocktail and Halt Phosphatase Inhibitor Cocktail along with 0.5 M EDTA (all reagents from Thermo Fisher Scientific) and lysed on ice for 20 min. Afterward, the lysates were sonicated and centrifuged at 10,000 rpm for 10 min at 4 °C. The obtained supernatants were collected for further analysis. The protein concentration was determined using a Micro BCA™ Protein Assay Kit (Thermo Fisher Scientific) according to the manufacturer’s procedure. Equal amounts of proteins (16 µg) were electrophoresed on SDS-Page gels and transferred onto nitrocellulose membranes. Novex Sharp Pre-Stained Protein Standard (Thermo Fisher Scientific) was used as a colored molecular weight marker. The membranes were blocked in 5% non-fat milk prepared in TPBS (PBS supplemented by 0.1% Tween-20) for 1 h. After blocking, the membranes were cut, and then incubated with specific primary monoclonal antibodies (all purchased from Cell Signaling) overnight at 4 °C. The antibodies for the target proteins (CDK1 Mouse mAb #9116, p53 Mouse mAb #2524, FAS Mouse mAb #8023, GLUT-1 Rabbit mAb #12939, HO-1 Rabbit mAb #5853, p21^Waf1/Cip1 Rabbit mAb #2947, PARP #9542) were diluted 1:1000, while the antibodies for the reference proteins (GAPDH Rabbit mAb #2118, β-actin Mouse mAb #3700, and vinculin Rabbit mAb #13901) were diluted 1:2000. The following day, the membranes were washed in TPBS and incubated with horseradish peroxidase (HRP)-conjugated secondary antibodies (Anti-rabbit IgG, HRP-linked Antibody #7074 or Anti-mouse IgG, HRP-linked Antibody #7076) for 1 h at room temperature. The membranes were then washed in TPBS and incubated with a SuperSignal™ West Pico Chemiluminescent Substrate (Thermo Fisher Scientific). Finally, the membranes were visualized using a ChemiDoc™ XRS + System (Bio-Rad). The experiments were carried out four to five times. The densitometric analysis was performed using ImageJ software (Wayne Rasband, National Institutes of Health, USA).
We, therefore, decided to test the effect of the tested compound on the level of the main glucose transporter, GLUT-1. […] The validity of the described conclusions was confirmed by the results that were obtained for doxorubicin. in which p53 activation occurred at both tested time points with a concomitant decrease in the GLUT-1 levels. […] The results that were obtained from the measurements of the expression of this protein were so interesting, and at the same time, inconclusive that we additionally decided to determine the effect of the tested derivative 13 on the expression of the genes encoding selected glucose transporters.

[5] = test system: U-251; test: Monolayer antiproliferative MTS assay; assay type: cell-based, human; conditions: 2D monolayer
Source text: as §1
as §2, with “times. The results are presented as the half-maximal inhibitory concentration (IC50) values, which were estimated in comparison to untreated cells (control) and calculated using GraphPad Prism v.8.0 (USA).” for “times.”
(§4) However, the antiproliferative activity of derivative 13 with furan a ring was surprising. […] For this purpose, we selected two pancreatic cancer cell lines: AsPC-1, which is characterised by a deletion of the p53 protein[20] and PANC-1, which carries an R273H mutation. This mutation also occurred in the glioblastoma U-251 cell line[22],[23]. An additional non-adherent line that carries the TP53 mutation that results in the absence of p53 is the K562 leukemic cell line[24]. […] Moreover, 13 was selective toward […], as indicated by its SI values (3.35–9.41). Among all of the tested cell lines, the highest activity of the compound was found against the HCT 116 cells with the wild-type p53 protein (0.069 µM). […] The p53 protein also interacts with the metabolic pathways that are associated with glucose transport[25] as well as small molecules. In light of the above-mentioned facts, we also determined the cytotoxicity of the GLUT inhibitor BAY-876, which is based on a quinoline scaffold. […] Furthermore, BAY-876 was also toxic to normal cells.

[6] = test system: K562; test: Monolayer antiproliferative MTS assay; assay type: cell-based, human; conditions: 2D model
Source text: as §1
as §2, with “times. The results are presented as the half-maximal inhibitory concentration (IC50) values, which were estimated in comparison to untreated cells (control) and calculated using GraphPad Prism v.8.0 (USA).” for “times.”
as §4

[7] = test system: AsPC-1; test: Monolayer antiproliferative MTS assay; assay type: cell-based, human; conditions: 2D monolayer
Experimental: as §2, with “times. The results are presented as the half-maximal inhibitory concentration (IC50) values, which were estimated in comparison to untreated cells (control) and calculated using GraphPad Prism v.8.0 (USA).” for “times.”
as §4

[8] = test system: PANC-1; test: Monolayer antiproliferative MTS assay; assay type: cell-based, human; conditions: 2D monolayer
Experimental: as §2, with “times. The results are presented as the half-maximal inhibitory concentration (IC50) values, which were estimated in comparison to untreated cells (control) and calculated using GraphPad Prism v.8.0 (USA).” for “times.”
as §4

| SMILES | melting point [°C] | IC50 ([3]; NHDF) [nM] | SI (selectivity index) HCT 116 p53-/- [1] | IC50 ([1]; Homo sapiens, HCT-116, 72 h) [nM] | SI (selectivity index) HCT 116 p53+/+ [2] | IC50 ([2]; Homo sapiens, HCT-116, 72 h) [nM] | other results |
| --- | --- | --- | --- | --- | --- | --- | --- |
| Oc1cccc2ccc(/C=C/c3ccco3)nc12 [Compound 1] | – | – | – | – | – | – | IC50 [1]: > 25000 nM; IC50 [2]: > 25000 nM |
| Cc1ccc(/C=C/c2ccc3cccc(O)c3n2)o1 [Compound 2] | – | – | – | – | – | – | IC50 [1]: > 25000 nM; IC50 [2]: > 25000 nM |
| O=[N+]([O-])c1ccc(/C=C/c2ccc3cccc(O)c3n2)o1 [Compound 3] | 189 to 191 | – | – | – | – | – | – |
| CC(=O)Oc1cccc2ccc(/C=C/c3ccc([N+](=O)[O-])o3)nc12 [Compound 4] | 173 to 175 | 670 ± 80 | 2.79 | 240 ± 50 | 3.35 | 200 ± 30 | – |
| O=[N+]([O-])c1ccc(/C=C/c2cc(O)c3ccccc3n2)o1 [Compound 5] | 306 to 308 | 450 ± 70 | 1.50 | 300 ± 70 | 1.50 | 300 ± 100 | – |
| Oc1c(Cl)cc(Cl)c2ccc(C=Cc3ccco3)nc12 [Compound 6] | – | – | – | – | – | – | IC50 [3]: > 25000 nM; IC50 [1]: 2700 nM and 2720 nM; IC50 [2]: 4000 nM and 4010 nM |
| O=[N+]([O-])c1ccc(/C=C/c2ccc3c(Cl)cc(Cl)c(O)c3n2)o1 [Compound 7] | 270 to 271 | > 25000 | > 18.80 | 1330 ± 250 | > 7.23 | 3460 ± 340 | – |
| CC(=O)Oc1c(Cl)cc(Cl)c2ccc(/C=C/c3ccc([N+](=O)[O-])o3)nc12 [Compound 8] | 220 to 222 | 11400 ± 2530 | 10.13 | 1120 ± 510 | 5.46 | 2080 ± 400 | – |
| O=[N+]([O-])c1ccccc1/C=C/c1ccnc2ccccc12 [Compound 9] | 161 to 163 | – | – | > 25000 | – | > 25000 | – |
| O=[N+]([O-])c1cccc(/C=C/c2ccnc3ccccc23)c1 [Compound 10] | 111 to 112 | – | – | > 25000 | – | > 25000 | – |
| O=[N+]([O-])c1ccc(/C=C/c2ccnc3ccccc23)cc1 [Compound 11] | 228 to 229 | – | – | > 25000 | – | > 25000 | – |
| O=[N+]([O-])c1ccc(/C=C/c2ccnc3ccccc23)c([N+](=O)[O-])c1 [Compound 12] | 200 to 201 | – | – | – | – | – | IC50 ([1]; Homo sapiens, HCT-116): > 25000 nM; IC50 ([2]; Homo sapiens, HCT-116): > 25000 nM |
| COc1cccc2c1C(=O)c1c(O)c3c(c(O)c1C2=O)C[C@@](O)(C(=O)CO)C[C@@H]3O[C@H]1C[C@H](N)[C@H](O)[C@H](C)O1 [Doxorubicin, reference compound] | – | 140 ± 30 | 0.37 | – | 0.41 | – | GLUT-1 protein level vs control [4]: decrease; IC50 ([1]; Homo sapiens, HCT-116): 380 ± 30 nM; IC50 ([2]; Homo sapiens, HCT-116): 340 ± 40 nM; SI (selectivity index) U-251 ([5]; relative to NHDF): 2.80; IC50 ([5]; Homo sapiens, U-251, MTS, 72-h incubation): 50 ± 20 nM; SI (selectivity index) K562 ([6]; relative to NHDF): 7.00; IC50 ([6]; Homo sapiens, K562, MTS, 72-h incubation): 20 ± 10 nM; SI (selectivity index) AsPC-1 ([7]; relative to NHDF): 0.16; IC50 ([7]; Homo sapiens, ASPC1, MTS, 72-h incubation): 860 ± 130 nM; SI (selectivity index) PANC-1 ([8]; relative to NHDF): 0.19; IC50 ([8]; Homo sapiens, PANC-1, MTS, 72-h incubation): 730 ± 90 nM |
